# Counter-ions that a name gives are not always drawn.
# Target: Glycogen synthase kinase-3 beta (Homo sapiens, UniProt P49841)
# Assay: GSK3beta kinase inhibitor potency, dose response, biochemical, luminescence, cell-free homogeneous, retest (AID 434954)
# Glycogen synthase kinase-3 beta, sequence (P49841 whole entry): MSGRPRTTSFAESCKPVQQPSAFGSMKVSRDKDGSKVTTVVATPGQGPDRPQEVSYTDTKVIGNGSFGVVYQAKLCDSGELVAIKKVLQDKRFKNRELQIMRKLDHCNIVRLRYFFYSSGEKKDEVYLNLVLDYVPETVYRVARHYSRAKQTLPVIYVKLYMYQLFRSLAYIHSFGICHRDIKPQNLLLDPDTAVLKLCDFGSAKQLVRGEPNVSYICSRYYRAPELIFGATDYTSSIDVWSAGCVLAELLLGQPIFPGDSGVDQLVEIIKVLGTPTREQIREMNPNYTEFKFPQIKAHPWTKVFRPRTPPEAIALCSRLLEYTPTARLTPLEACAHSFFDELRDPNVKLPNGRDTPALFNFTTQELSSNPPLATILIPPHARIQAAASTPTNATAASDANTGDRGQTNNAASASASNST
row,Structure (SMILES),EC50 [µM]
1,"CCOc1ccccc1NC(=O)CSc1nnc(C2CC2)n1CC [2-[(5-cyclopropyl-4-ethyl-1,2,4-triazol-3-yl)thio]-N-(2-ethoxyphenyl)acetamide]",> 300
2,"COc1ccc2c(c1)=C(NN1C(=O)c3ccccc3C1=O)C(=O)N=2 [2-[(5-methoxy-2-oxidanylidene-indol-3-yl)amino]isoindole-1,3-dione]",> 300
3,"N#Cc1ccccc1CSc1nnc(-c2ccncc2)o1 [2-[(5-pyridin-4-yl-1,3,4-oxadiazol-2-yl)sulfanylmethyl]benzenecarbonitrile]",20.7
4,"CSc1nc(SCC(=O)NCC2CCCO2)c2c3c(sc2n1)CN(C)CC3 (stereo not given) [2-[(7-methyl-2-methylsulfanyl-6,8-dihydro-5H-pyrido[2,3]thieno[2,4-b]pyrimidin-4-yl)sulfanyl]-N-(oxolan-2-ylmethyl)ethanamide]",22.8
5,"CCCc1cc(=O)[nH]c2nnc(SCC(=O)Nc3nccs3)n12 [2-[(7-oxidanylidene-5-propyl-1H-[1,2,4]triazolo[4,3-a]pyrimidin-3-yl)sulfanyl]-N-(1,3-thiazol-2-yl)ethanamide]",> 300
6,"COc1ccc(OC)c(Nc2oc3cc(=O)ccc-3cc2C(N)=O)c1 [2-[(Z)-2,5-Dimethoxy-phenylimino]-7-hydroxy-2H-chromene-3-carboxylic acid amide]",11.9
7,COc1cccc(C(=O)CN2C=CC=CC2=CN=O)c1 [2-[(hydroxyimino)methyl]-1-[2-(3-methoxyphenyl)-2-oxoethyl]pyridinium],> 300
8,NC(=O)CN(c1ccc([N+](=O)[O-])cc1)S(=O)(=O)c1ccccc1 [2-[N-(benzenesulfonyl)-4-nitroanilino]acetamide],> 300
9,"Cc1csc(NC(=O)CN2C(=O)c3ccccc3C2=O)c1C(N)=O [2-[[2-(1,3-dioxo-2-isoindolyl)-1-oxoethyl]amino]-4-methyl-3-thiophenecarboxamide]",> 300
10,COC(=O)c1ccc2c(=O)n(CC3CCCO3)c(SCC(=O)Nc3ccccc3Cl)nc2c1 (stereo not given) [2-[[2-(2-chloroanilino)-2-keto-ethyl]thio]-4-keto-3-(tetrahydrofurfuryl)quinazoline-7-carboxylic acid methyl ester],> 300
11,"CCCC(NC(=O)Cc1c(C)c2c(cc(C)c3c(C)coc32)oc1=O)C(=O)O (stereo not given) [2-[[2-(3,4,9-trimethyl-7-oxofuro[2,3-f]chromen-8-yl)acetyl]amino]pentanoic acid]",> 300
12,O=C(O)c1ccccc1Nc1ccnc(C(F)(F)F)c1 [2-[[2-(trifluoromethyl)-4-pyridinyl]amino]benzoic acid],> 300
13,"COc1ccc(-c2nnc3ccc(SCC(N)=O)nn23)cc1OC [2-[[3-(3,4-dimethoxyphenyl)-[1,2,4]triazolo[4,3-b]pyridazin-6-yl]sulfanyl]ethanamide]",> 300
14,"O=C(CSc1ccc2nnc(-c3ccc(F)cc3)n2n1)N1CCOCC1 [2-[[3-(4-fluorophenyl)-[1,2,4]triazolo[4,3-b]pyridazin-6-yl]sulfanyl]-1-morpholin-4-yl-ethanone]",> 300
15,"CC(Sc1ccc2nnc(-c3ccc(F)cc3)n2n1)C(=O)O (stereo not given) [2-[[3-(4-fluorophenyl)-[1,2,4]triazolo[4,3-b]pyridazin-6-yl]sulfanyl]propanoic acid]",21.4
16,"O=C(CSc1ccc2nnc(-c3ccc(F)cc3)n2n1)NCc1ccco1 [2-[[3-(4-fluorophenyl)-[1,2,4]triazolo[4,3-b]pyridazin-6-yl]thio]-N-(2-furanylmethyl)acetamide]",39.9
17,"CCC(Sc1ccc2nnc(-c3ccc(F)cc3)n2n1)C(=O)O (stereo not given) [2-[[3-(4-fluorophenyl)-[1,2,4]triazolo[4,3-b]pyridazin-6-yl]thio]butanoic acid]",29.5
18,"CCOC(=O)C(C)Sc1ccc2nnc(-c3ccc(F)cc3)n2n1 (stereo not given) [2-[[3-(4-fluorophenyl)-[1,2,4]triazolo[4,3-b]pyridazin-6-yl]thio]propanoic acid ethyl ester]",19.3
19,"Cc1ccc(-c2nnc3ccc(SC(C)C(=O)O)nn23)cc1 (stereo not given) [2-[[3-(4-methylphenyl)-[1,2,4]triazolo[4,3-b]pyridazin-6-yl]sulfanyl]propanoic acid]",34.2
20,"CC(C)N1CCc2c(sc(NC(=O)CCS(=O)(=O)c3ccccc3)c2C(N)=O)C1 [2-[[3-(benzenesulfonyl)-1-oxopropyl]amino]-6-propan-2-yl-5,7-dihydro-4H-thieno[2,3-c]pyridine-3-carboxamide;hydrochloride]",> 300
21,Cc1ccc(C(=O)c2coc3ccc(OCC(=O)O)cc23)cc1 [2-[[3-[(4-methylphenyl)-oxomethyl]-5-benzofuranyl]oxy]acetic acid],3.66
22,"COc1ccc(-n2c(Cc3cccn3C)nnc2SCC(=O)NCC2CCCO2)cc1 (stereo not given) [2-[[4-(4-methoxyphenyl)-5-[(1-methylpyrrol-2-yl)methyl]-1,2,4-triazol-3-yl]sulfanyl]-N-(oxolan-2-ylmethyl)acetamide]",> 300
23,"CCNc1nc(SCC(N)=O)nc2sc3c(c12)CCN(C)C3 [2-[[4-(ethylamino)-7-methyl-6,8-dihydro-5H-pyrido[4,5]thieno[1,2-c]pyrimidin-2-yl]sulfanyl]acetamide]",49.4
24,Nc1nc(NCCO)nc(NCc2ccccc2)c1[N+](=O)[O-] [2-[[4-amino-6-(benzylamino)-5-nitropyrimidin-2-yl]amino]ethanol],20.2

# More lines, now with the values ahead:
row,EC50 [µM],Structure (SMILES)
1,1.36,Nc1nc(NCCO)nc(NC2CCCCC2)c1[N+](=O)[O-] [2-[[4-amino-6-(cyclohexylamino)-5-nitro-2-pyrimidinyl]amino]ethanol]
2,> 300,Nc1nc(NCC(=O)O)nc(NC2CCCCC2)c1[N+](=O)[O-] [2-[[4-azanyl-6-(cyclohexylamino)-5-nitro-pyrimidin-2-yl]amino]ethanoic acid]
3,> 300,"Cc1[nH]c2ccccc2c1Cc1nnc(SCC(N)=O)o1 [2-[[5-[(2-methyl-1H-indol-3-yl)methyl]-1,3,4-oxadiazol-2-yl]sulfanyl]acetamide]"
4,114,Nc1nc(Nc2cccc(F)c2)nc(NCCO)c1[N+](=O)[O-] [2-[[6-amino-2-(3-fluoroanilino)-5-nitro-4-pyrimidinyl]amino]ethanol]
5,6.82,CC(C)CCNc1nc(N)c([N+](=O)[O-])c(NCCO)n1 [2-[[6-amino-2-(3-methylbutylamino)-5-nitropyrimidin-4-yl]amino]ethanol]
6,1.7,Nc1nc(Nc2ccc(Cl)cc2)nc(NCCO)c1[N+](=O)[O-] [2-[[6-amino-2-(4-chloroanilino)-5-nitropyrimidin-4-yl]amino]ethanol]
7,2.16,Nc1nc(NC2CCCCC2)nc(NCCO)c1[N+](=O)[O-] [2-[[6-amino-2-(cyclohexylamino)-5-nitro-4-pyrimidinyl]amino]ethanol]
8,60.3,CN(C)CCCNc1nc(N)c([N+](=O)[O-])c(NCCO)n1 [2-[[6-amino-2-[3-(dimethylamino)propylamino]-5-nitro-4-pyrimidinyl]amino]ethanol]
9,28.5,COCCNc1nc(N)c([N+](=O)[O-])c(NCCO)n1 [2-[[6-azanyl-2-(2-methoxyethylamino)-5-nitro-pyrimidin-4-yl]amino]ethanol]
10,> 300,"COc1nc(N(C)C)nc(N(C#N)CCOC(C)=O)n1 [2-[cyano-[4-(dimethylamino)-6-methoxy-1,3,5-triazin-2-yl]amino]ethyl ethanoate]"
11,> 300,"COc1ccc(OC)c(-c2cc(-c3cccnc3)nc(N)c2C#N)c1 [2-amino-4-(2,5-dimethoxyphenyl)-6-pyridin-3-ylpyridine-3-carbonitrile]"

# Reference: BindingDB's records for doi:10.7270/Q2TX3CTT (Broad Institute, 2010)
